Reference: patent US8551963B2, “Imidazolothiazole compounds and methods of use thereof” (Ambit Biosciences Corporation, priority 2008, dated 2013)
Converted amounts (≈) assume the structure as drawn. Structures can show the parent of a compound that is named as a salt. Where two headings read alike, the source gives them in different places.

Key:
MDR1-MDCK cells = settings: dog, MDCK-MDR1, 10 μM, pH 7.4
P-Glycoprotein = P-Glycoprotein (Homo sapiens (Human), UniProt P08183); assay: Digoxin bidirectional MDR1-MDCK permeability, Compound I-1 as an inhibitor; settings: dog; for Papp A→B at 1 μM: MDCK-MDR1, pH 7.4, Digoxin PeAP→BL; for Papp B→A at 1 μM: MDCK-MDR1, pH 7.4, Digoxin PeBL→AP
plasma protein = assay: Plasma protein binding assay (equilibrium dialysis); assay type: in vitro ADME; settings: 1 μM, equilibrium dialysis 16-20 hours at 37° C.
Procedure: Reagents: 1× Isotonic PBS (Mediatech, Inc., Herndon, Va.); 96 Well Equilibrium Dialyzer (Harvard Apparatus, Holliston, Mass.) and Animal plasma from species of interest.
1 μM solutions of test compound were prepared in both isotonic PBS and 10% animal plasma in isotonic PBS.
200 μl of each test solution was added to opposite sides of the equilibrium dialysis membrane.
Samples were incubated for 16-20 hours at 37° C.
After incubation, 100 μl sample was removed from the PBS side and diluted with 100 μl of 20% animal plasma in PBS.
100 μl sample was removed from the 10% animal plasma side and diluted with 100 μl of 10% animal plasma.
A calibration curve was prepared in 10% animal plasma to extrapolate unknown concentrations.
Samples were analyzed by LC/MS/MS.
50 μl of samples, calibration standards and quality control standards were extracted with 100 μl of acetonitrile containing 25 ng/ml of internal standard.
Calculations Calculate fraction unbound in 10% plasma Fu(10%)=1−(PC−PF)/PC) Convert 10% plasma value to 100% Fu(100%)=Fu10%/(10−9*Fu10%).

[1] = Aqueous and surfactant solubility; assay type: physicochemical; settings: room temperature overnight
[2] = Microsomal stability, pooled mouse liver microsomes; assay type: in vitro ADME; settings: pH 7.4
Procedure: Microsomes were stored at −80° C. prior to use.
The final incubation volume was 600 μL.
The elimination rate constant (k)=(−slope)

In vivo clearance, mouse = settings: clearance call in words
Description: (§1) Clearance was modest in dog microsomes, and high in Cynomolgus monkey microsomes. Using a comparison of in vitro and in vivo clearance, human clearance can be predicted. The in vitro intrinsic clearance is influenced by animal weight, hepatic blood flow, relative liver weight, and amount of protein/liver weight. […] Human clearance is predicted to be low (Table 2).

In vivo clearance, rat = assay: In vivo clearance, rat
Description: as §1

In vivo clearance, dog = assay: In vivo clearance, dog
Description: as §1

[3] = In vivo clearance, monkey
Description: as §1

[4] = Predicted human in vivo clearance; settings: predicted from comparison of in vitro and in vivo clearance
Description: as §1

MV4;11 cells = assay: MV4;11 cellular proliferation assay (Cell Titer Blue); assay type: cell-based; settings: Homo sapiens, MV4-11, 72 h, read-out: EC50 (50% inhibition of cellular proliferation)
RS4;11 cells = assay: RS4;11 cellular proliferation assay (Cell Titer Blue); assay type: cell-based; settings: Homo sapiens, RS4-11, 48 h, read-out: EC50 (50% inhibition of cellular proliferation)
[5] = dog, microsomes, 1 μM, pH 7.4
in vitro [6] = settings: rat, microsomes, pH 7.4
in vitro [7] = settings: dog, microsomes
in vitro [8] = settings: monkey, microsomes, pH 7.4
in vitro [9] = settings: both, human, microsomes, pH 7.4
P-glycoprotein (MDR1) = assay: in vitro; settings: dog
[10] = Microsomal stability and metabolic turnover, pooled rat liver microsomes; settings: pH 7.4
[11] = Microsomal stability and metabolic turnover, pooled dog liver microsomes; settings: pH 7.4
[12] = Microsomal stability and metabolic turnover, pooled human liver microsomes; settings: both, pH 7.4
[13] = Microsomal stability and metabolic turnover, pooled Cynomolgus monkey liver microsomes; settings: pH 7.4
[14] = Table 17, Digoxin 1 μM alone, Std
[15] = Table 17, Digoxin 1 μM alone, Surf.
[16] = preliminary experiment, Digoxin 1 μM alone, Std
[17] = preliminary experiment, Digoxin 1 μM alone, Surf.
[18] = in vivo, read-out: In Vivo t1/2 (converted)

Sequence of P-Glycoprotein (P08183 whole entry): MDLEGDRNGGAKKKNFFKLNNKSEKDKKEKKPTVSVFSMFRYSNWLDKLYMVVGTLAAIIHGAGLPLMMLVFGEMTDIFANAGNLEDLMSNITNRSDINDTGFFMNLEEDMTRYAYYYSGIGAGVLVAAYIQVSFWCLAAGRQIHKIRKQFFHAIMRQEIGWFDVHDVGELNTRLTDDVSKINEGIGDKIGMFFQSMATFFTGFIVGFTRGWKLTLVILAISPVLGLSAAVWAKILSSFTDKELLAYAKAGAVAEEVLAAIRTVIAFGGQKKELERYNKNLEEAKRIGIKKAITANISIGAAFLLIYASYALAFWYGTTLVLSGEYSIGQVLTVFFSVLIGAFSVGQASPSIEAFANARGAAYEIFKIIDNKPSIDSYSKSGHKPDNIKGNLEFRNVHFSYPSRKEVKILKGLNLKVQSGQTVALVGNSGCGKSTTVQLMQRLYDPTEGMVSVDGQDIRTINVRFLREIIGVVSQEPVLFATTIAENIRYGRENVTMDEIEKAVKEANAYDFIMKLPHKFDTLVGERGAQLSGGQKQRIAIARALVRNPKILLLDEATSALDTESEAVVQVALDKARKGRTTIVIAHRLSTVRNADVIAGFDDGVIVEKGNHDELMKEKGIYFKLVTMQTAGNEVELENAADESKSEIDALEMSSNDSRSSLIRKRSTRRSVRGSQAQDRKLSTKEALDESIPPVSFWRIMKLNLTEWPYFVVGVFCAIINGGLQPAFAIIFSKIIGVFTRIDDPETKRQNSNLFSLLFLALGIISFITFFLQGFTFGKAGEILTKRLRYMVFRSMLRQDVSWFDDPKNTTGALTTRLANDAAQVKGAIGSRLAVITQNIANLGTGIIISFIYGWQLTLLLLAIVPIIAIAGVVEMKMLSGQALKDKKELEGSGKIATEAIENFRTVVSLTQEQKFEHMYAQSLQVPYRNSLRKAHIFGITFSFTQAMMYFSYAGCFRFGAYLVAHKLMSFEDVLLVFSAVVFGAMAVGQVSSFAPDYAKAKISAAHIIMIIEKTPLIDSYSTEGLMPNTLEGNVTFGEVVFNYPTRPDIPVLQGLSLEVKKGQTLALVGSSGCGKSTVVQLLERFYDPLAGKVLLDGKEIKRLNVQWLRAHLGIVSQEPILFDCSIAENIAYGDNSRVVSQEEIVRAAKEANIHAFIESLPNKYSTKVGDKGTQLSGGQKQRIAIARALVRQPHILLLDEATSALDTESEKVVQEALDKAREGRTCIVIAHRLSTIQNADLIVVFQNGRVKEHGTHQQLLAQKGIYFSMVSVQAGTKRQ

SMILES: CNC(=C[N+](=O)[O-])NCCSCc1ccc(CN(C)C)o1 [Ranitidine]
- Assymetry Index (MDR1-MDCK cells): 1.9
- PeAP→BL (MDR1-MDCK cells): 1.63 ×10⁻⁶ cm/s
- PeBL→AP (MDR1-MDCK cells): 3.02 ×10⁻⁶ cm/s

SMILES: C[C@H]1O[C@@H](O[C@H]2[C@@H](O)C[C@H](O[C@H]3[C@@H](O)C[C@H](O[C@H]4CC[C@@]5(C)[C@H](CC[C@@H]6[C@@H]5C[C@@H](O)[C@]5(C)[C@@H](C7=CC(=O)OC7)CC[C@]65O)C4)O[C@@H]3C)O[C@@H]2C)C[C@H](O)[C@@H]1O [Digoxin, reference compound]
- Papp A→B at 1 μM (P-Glycoprotein; [14]): 8.76 ×10⁻⁶ cm/s
- Papp A→B at 1 μM (P-Glycoprotein; [15]): 2.21 ×10⁻⁶ cm/s
- Papp A→B at 1 μM (P-Glycoprotein; [16]): 0.24 ×10⁻⁶ cm/s
- Papp A→B at 1 μM (P-Glycoprotein; [17]): 2.91 ×10⁻⁶ cm/s
- Papp B→A at 1 μM (P-Glycoprotein; [14]): 29.3 ×10⁻⁶ cm/s
- Papp B→A at 1 μM (P-Glycoprotein; [15]): 4.93 ×10⁻⁶ cm/s
- Papp B→A at 1 μM (P-Glycoprotein; [16]): 20 ×10⁻⁶ cm/s
- Papp B→A at 1 μM (P-Glycoprotein; [17]): 6.03 ×10⁻⁶ cm/s

SMILES: CC(C)(C)c1cc(NC(=O)Nc2ccc(-c3cn4c(n3)sc3cc(OCCN5CCOCC5)ccc34)cc2)no1 [Compound IA, hydrochloride salt, N-(5-tert-butyl-isoxazol-3-yl)-N′-{4-[7-(2-morpholin-4-yl-ethoxy)imidazo[2,1-b][1,3]benzothiazol-2-yl]phenyl}urea, reference compound]
- Percentage of unbound compound in 10% plasma (plasma protein): 17%

SMILES: COC(=O)[C@H]1[C@H]2C[C@@H]3c4[nH]c5cc(OC)ccc5c4CCN3C[C@H]2C[C@@H](OC(=O)c2cc(OC)c(OC)c(OC)c2)[C@@H]1OC [Reserpine]
- solubility ([1]; HBSS buffer with 0.05% Polysorbate 80, pH 7.4, aqueous with cosolvent or surfactant or cyclodextrin, kinetic from dmso stock, HBSS containing 0.05% Polysorbate 80, 2.5% DMSO, read-out: Average Aqueous Solubility, 0.05% Polysorbate 80): 5 µM (≈ 3.04 µg/mL)
- solubility ([1]; Hank's balanced salt solution (HBSS) buffer, aqueous buffer, kinetic from dmso stock, HBSS pH 7.4, 2.5% DMSO, read-out: Average Aqueous Solubility, pH 7.4): < 1 µM

SMILES: CC(C)(C)c1cc(NC(=O)Nc2ccc(-c3cn4c(n3)sc3cc(OCCN5CCOCC5)ccc34)cc2)no1 [Compound IA, N-(5-tert-butyl-isoxazol-3-yl)-N′-{4-[7-(2-morpholin-4-yl-ethoxy)imidazo[2,1-b][1,3]benzothiazol-2-yl]phenyl}urea]
- half-life at 1 μM ([2]; mouse, microsomes): > 60 min
- microsomal CLint at 1 μM ([2]; mouse, microsomes): < 23 µL/min/mg
- In Vivo Cl (In vivo clearance, mouse): Low
- In Vivo Cl (In vivo clearance, rat; clearance call in words): Low
- half-life (In vivo clearance, rat; [18]): 414 min
- In Vivo Cl (In vivo clearance, dog; clearance call in words): Modest
- half-life (In vivo clearance, dog; [18]): 366 min
- In Vivo Cl ([3]; clearance call in words): High
- half-life [3, 18]: 162 min
- In Vivo Cl [4]: low and Low
- EC50 (MV4;11 cells): 0.6 nM
- EC50 (RS4;11 cells): 4 nM
- half-life [5]: 24 min
- half-life at 1 μM (in vitro [6]): > 60 min
- microsomal CLint at 1 μM (in vitro [6]): < 23 µL/min/mg
- microsomal CLint at 1 μM (in vitro [7]; pH 7.4): 42 µL/min/mg
- half-life at 1 μM (in vitro [7]; pH 7.4, Half-life): 33 min
- half-life at 1 μM (in vitro [8]): 19 min
- microsomal CLint at 1 μM (in vitro [8]): 73 µL/min/mg
- half-life at 1 μM (in vitro [9]): > 60 min
- microsomal CLint at 1 μM (in vitro [9]): < 23 µL/min/mg

SMILES: CC(C)NCC(O)COc1cccc2[nH]ccc12 (stereo not drawn) [Pindolol]
- efflux ratio at 10 μM (P-glycoprotein (MDR1); MDCK-MDR1, pH 7.4, Assymetry Index): 1
- Papp A→B at 10 μM (P-glycoprotein (MDR1); MDCK-MDR1, pH 7.4, PeAP→BL): 31.7 ×10⁻⁶ cm/s
- Papp B→A at 10 μM (P-glycoprotein (MDR1); MDCK-MDR1, pH 7.4, PeBL→AP): 30.6 ×10⁻⁶ cm/s

SMILES: CC(=O)N1CCN(c2ccc(OCC3COC(Cn4ccnc4)(c4ccc(Cl)cc4Cl)O3)cc2)CC1 (stereo not drawn) [Ketoconazole]
- solubility ([1]; HBSS containing 0.05% Polysorbate 80, 2.5% DMSO, read-out: Average Aqueous Solubility, 0.05% Polysorbate 80): 86 µM (≈ 45.7 µg/mL)
- solubility ([1]; HBSS pH 7.4, 2.5% DMSO, read-out: Average Aqueous Solubility, pH 7.4): 18 µM (≈ 9.57 µg/mL)

SMILES: C[C@]12CC[C@H]3[C@@H](CCC4=CC(=O)CC[C@@]43C)[C@@H]1CC[C@@H]2O [Testosterone]
- half-life at 1 μM ([2]; mouse liver microsomes, 1 μM, 0.5 mg/mL, NADPH, read-out: Half-life): 6 min
- half-life at 1 μM [10]: 4 min
- half-life at 1 μM [11]: 60 min
- half-life at 1 μM [12]: 11 min
- half-life at 1 μM [13]: 3 min
